Literature values in patent US6436435B1, “Liposome formulation of 5 β steroids” (Super Gen, Inc., priority 1995, dated 2002).

Experiments:
[1] = system: genetically obese and diabetic mice; details: maximal benefit when ingested
[2] = system: genetically obese mice; details: variety of routes
[3] = system: severely diabetic mammals; details: oral administration
[4] = system: individuals suffering from Prader-Willi Syndrome; details: in vivo
[5] = system: C57BL/KsJ-db/db diabetic mice; details: for effectiveness in preventing development of diabetes relative to DHEA: C57BL/KsJ-db/db diabetic mice; for blood sugar / plasma insulin concentrations: mouse, in vivo
[6] = system: diabetic genetically obese mice; details: supplied in the diet
[7] = system: obese mice; details: injected im, ip or iv / parenteral
[8] = system: congenitally obese mice carrying the ob ob mutation

## C[C@]12CC[C@H](O)CC1=CC[C@@H]1[C@@H]2CC[C@]2(C)C(=O)CC[C@@H]12 [DHEA, 3-β-hydroxy-androst-5-en-17-one]
[1]
  development of diabetes: markedly reduced the development of diabetes
[2]
  rate of weight gain: decreased the rate of weight gain
[3]
  glucose tolerance: improved glucose tolerance
  hyperglycemia: restored hyperglycemia to normal levels

## C[C@]12CCC(=O)C[C@H]1CC[C@@H]1[C@@H]2CC[C@]2(C)C(=O)CC[C@@H]12 [ED, 5β-androstane-3,17-dione]
Oral ED four grams per day
  subjective or objective side effects: no significant subjective or objective side effects
  weight loss per week per 100 kilograms of body fat: 0.5±0.91 kilograms per week per 100 kilograms of body fat
Oral ED four grams per day, 10 week period, 14 obese subjects
  mean weight loss during ED administration: 2.8±5.5 kilograms
Over the 10 week period of ED administration
  mean fat loss, of the initial body fat content: about 5%
[4]
  body weight in Prader-Willi Syndrome: either weight loss or a decrease in the rate of weight gain

## C[C@]12CC[C@@H](O)C[C@@H]1CC[C@@H]1[C@@H]2CC[C@]2(C)C(=O)CC[C@@H]12 [androsterone]
[5]
  effectiveness in preventing development of diabetes relative to DHEA: not

## C[C@]12CC[C@H](O)C[C@@H]1CC[C@@H]1[C@@H]2CC[C@]2(C)C(=O)CC[C@@H]12 [epiandrosterone]
[5]
  effectiveness in preventing development of diabetes relative to DHEA: not

## C[C@]12CC[C@@H](O)C[C@H]1CC[C@@H]1[C@@H]2CC[C@]2(C)C(=O)CC[C@@H]12 [etiocholanolone]
[4]
  body weight in Prader-Willi Syndrome: either weight loss or a decrease in the rate of weight gain

## C[C@]12CC[C@@H](O)C[C@H]1CC[C@@H]1[C@@H]2CC[C@]2(C)C(=O)CC[C@@H]12 [α ET, 3α-hydroxy-5β-androstane-17-one]
[6]
  anti-obesity properties: can prevent and arrest the development of obesity
[5]
  effectiveness in preventing development of diabetes relative to DHEA: four times more effective than DHEA
  blood sugar: reduce blood sugar
  plasma insulin concentrations: increased plasma insulin concentrations
[7]
  anti-obesity effect, injected: does not exert an anti-obesity effect

## C[C@]12CC[C@H](O)C[C@H]1CC[C@@H]1[C@@H]2CC[C@]2(C)C(=O)CC[C@@H]12 [β ET, 3β-hydroxy-5β-androstane-17-one]
[6]
  anti-obesity properties: can prevent and arrest the development of obesity
[5]
  effectiveness in preventing development of diabetes relative to DHEA: four times more effective than DHEA
  blood sugar: reduce blood sugar
  plasma insulin concentrations: increased plasma insulin concentrations
[7]
  anti-obesity effect, injected: does not exert an anti-obesity effect

B1: OB protein: protein product of the recombinant gene ob in mice and its human homologue (protein, UniProt P41160 22-167, looked up)
Leptin: VPIQKVQDDTKTLIKTIVTRINDISHTQSVSAKQRVTGLDFIPGLHPILSLSKMDQTLAVYQQVLTSLPSQNVLQIANDLENLRDLLHLLAFSKSCSLPQTSGLQKPESLDGVLEASLYSTEVVALSRLQGSLQDILQQLDVSPEC
[8]; highest dose tested, 10 mg/kg per day
  serum insulin and glucose levels: normalized to the level typically seen in the non-mutant mice
[8]; parenteral administration
  body weight effect: weight reducing effects
